Legend:
[1] = tested on: HIV-1 infection of TZM-bl cells; test: HIV-1 infectivity enhancement assay, β-galactosidase luminescence; assay type: cell-based; conditions: for Rel-EFC / Log10 Infection Rel EFC: 1.3 µM peptide; for Rel-EFC: infection relative to EF-C (QCKIKQIINMWQ = 1); for Log10 Infection Rel EFC: log10 of infection relative to EF-C; for Log Infectivity: Log10 infection relative to EF-C, TZM-bl cells, asymmetric std dev errors; for Log10 Infection Rel EF-C: HIV-1 infection of TZM-bl cells; for Abs. Inf.: absolute infection signal, HIV-1 on TZM-bl cells, β-galactosidase luminescence; for Log10 Inf. rel. to EF-C: log10 of HIV-1 infection of TZM-bl cells relative to EF-C (EF-C = 0); for Log10 of Rel to EFC (Feb2021): Log10 of infection relative to EF-C, all peptides of FigS16
[2] = β-sheet content by ATR-FT-IR; assay type: physicochemical; conditions: Fig. S7 panel A; β-sheet content by ATR-FT-IR
Outline: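 ATR FT-IR, diamond crystal, 64 scans, 2 cm^-1, on freeze-dried 1 mg/mL PNF; β-sheet per prior calculation. Fluorescamine CR: 3 kDa filter, DMSO redissolution, 20 min RT, ex 365/em 470 nm; values as n-fold enhancement over DMSO (set to 1).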

[3] = Zeta-potential measurement; assay type: physicochemical
Outline: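 Samples: 1 mg/mL in PBS pH 7.4 (from DMSO), 1 d at RT, then diluted in 1 mM KCl immediately before measurement. Triplicates, two independent runs averaged.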

[4] = Turbidity, derived count rate of scattered light; assay type: physicochemical; conditions: for Count Rate / kcps: derived count rate of scattered light at 633 nm, 173°, from zeta-potential measurement, 0.1 mg/mL in 1 mM KCl after 1 d at 1 mg/mL in PBS, turbidity / microscopic aggregation, mean of triplicate
Outline: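 One-day room-temperature aggregation at 1 mg/mL in PBS (pH 7.4) preceded measurement; samples then went into 1 mM KCl. Triplicates per sample, two independent experiments averaged.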

[5] = Turbidity, derived count rate of scattered light; assay type: physicochemical; conditions: for Count Rate: derived count rate of scattered light (turbidity); for Log10 Count Rate: turbidity, derived count rate of scattered light, data of Figure 2D
[6] = Fig. S7 panel A (plotted against β-sheet content)
[7] = Fig. S7 panel B (plotted against CR), rounded to two decimals
[8] = Log10 of infection rate relative to EF-C, Figure 3A source data
[9] = infection rate relative to EF-C, log10, data of Figure 2D
[10] = infection rate relative to EF-C, log10, source data of Figure 2C
[11] = zeta-potential of peptide, source data of Figure 2C
[12] = zeta-potential of the peptide assemblies, mean, Figure 3A source data
[13] = Log10 of derived count rate of scattered light (turbidity)
[14] = turbidity, Log10 of derived count rate of scattered light, Figure 3A source data
[15] = turbidity, log10 of derived count rate of scattered light

Substance	Rel-EFC [1]	Log10 Infection Rel EFC [1]	Log Infectivity [1, 6]	Log Infectivity [1, 7]	Log10 Infection Rel EF-C [1, 8]	Log10 Infection Rel EF-C [1, 9]	Log10 Infection Rel EF-C [1, 10]	Abs. Inf. [1]	Log10 Inf. rel. to EF-C [1]	b -sheet / % [2]	Zeta-Pot. [3]	Zeta-Potential / mV [3, 11]	Zeta-Potential / mV [3, 12]	Log10 Count Rate [4, 13]	Count Rate / kcps [4]	Log10 Count Rate [4, 14]	Log10 Count Rate [4, 15]	Count Rate [5]	Log10 Count Rate [5]	Log10 of Rel to EFC (Feb2021) [1]	other results
HLHLPLL	0,01	-2	-1.9991	-2	-2	-1.9991	-1.9991	133.3	-1.9991	49.19%	-9.053	-5.247 mV	-9.05 mV	2.301	200 kcps	2.301	2.301	200	2.301		
QCKFKFQFNMWQ	0,62	-0,21	-0.2086	-0.21	-0.21	-0.2086	-0.2086	19753.33333	-0.2086	47.0491%	21.07	16.85 mV	21.07 mV	3.082	1208 kcps	3.082	3.082	1208	3.082	-0.21	
RGEKIKIQINM	0,24	-0,61	-0.6134	-0.61	-0.61	-0.6134	-0.6134	7838	-0.6134	38.16%	15.3	16.35 mV	15.3 mV	2.774	595 kcps	2.774	2.774	594.6	2.774	-0.61	
CKFKFQFNM	1,24	0,09	0.09417	0.09	0.09	0.09417	0.09417	28183.33333	0.09417	41%	15.13	14.97 mV	15.13 mV	3.347	2224 kcps	3.347	3.347	2224	3.347	0.09	Log10 Count Rate ([4]; logarithm of count rate in kcps): 3.347
RPRGLLLGNLR	0,05	-1,32	-1.3163		-1.32	-1.3163	-1.3163	716.7	-1.3163	13.82%	-8.15	-5.002 mV	-8.15 mV	2.322	210 kcps	2.322	2.322	210.1	2.322		
